The test system of experiment [1] is cigarette smoke induced Neutrophil accumulation in BAL Fluid. Briefly: Acute guinea pig model of airway inflammation (tobacco smoke, COPD). The format is in vivo. Particulars: for % Inhibition of neutrophil against vehicle group: exposure 56 minutes; for Neutrophil (*10^6 cells/animal) in BAL fluid: whole body aerosol exposure 56 minutes, day 6 to day 11, Mean ± SEM. From the text: The tobacco smoke induced airway inflammation model is used for in vivo efficacy of compound. Many investigators have used acute tobacco smoke (TS) exposure in rodents as models of airway inflammation for quick screening of anti-inflammatory therapies for COPD (J Pharmacol Exp Ther. 2008; 324(3):921-9; J Pharmacol Exp Ther. 2010; 332(3):764-75; Journal of Inflammation 2013, 10(Suppl 1):31 and Eur Respir J Suppl 2006; 663s:3850). Given its position as predominant cause of COPD, animal models using TS exposure would appear to be the logical choice for investigation (Respir Res. 2004; 2;5:18).
Guinea pigs were exposed to tobacco smoke (TS) in an acrylic chamber. Animals were exposed to TS from 5, 10, 15 cigarettes on day 1, day 2, day 3 respectively. From day 4 onwards till day 11, animals were exposed to TS from 15 cigarettes per day. On 11 days of exposure of guinea pig to TS, significant inflammatory cell recruitment, predominantly neutrophils, to lungs was observed as compared to air exposed control guinea pig (BALF neutrophil levels, 0.59±0.15*10^6 cells/animal in air control group vs 8.3±1.4*10^6cells/animal in smoke exposed vehicle group)
Lung delivery of test compound was achieved by whole body aerosol exposure using nebulizer for 56 minutes in a chamber. Guinea pig were divided in different dose groups and exposed in a chamber for 56 minutes with vehicle or Compound No. 39 (1 mg/ml or 3 mg/ml). A total quantity of 6.0 ml of either vehicle or test compound formulation was nebulized in chambers to respective groups over 56 mins period. Test compound was administered 2 hr prior to TS exposure from day 6 to day 11. Bronchoalveolar lavage (BAL) was performed 24 hr post last TS exposure.
Trachea of animal was cannulated using catheter. Phosphate Buffer Saline (PBS) was used as lavage fluid. A volume of 5.0 ml was gently instilled and withdrawn and collected in microcentrifuge tube placed on ice. This procedure was repeated further 5 times.
Lavage fluid was separated from cells by centrifugation and supernatant separated. The cell pallet was resuspended in known volume of PBS. Cells in aliquot were stained using Turk solution and total cell numbers were calculated by counting Turk stained aliquot under microscope using haemocytometer.
The residual cell suspension was resuspended and slides prepared using cyto centrifuge technique (Cytospin 4, Thermo Shandon). […] Up to 300 cells were counted and differentiated using standard morphometric techniques under light microscopy.
All results are presented at individual data for each animal and mean value calculated for each group. Percentage inhibition for the neutrophil was calculated for Compound No 39 treatment group against vehicle group.

The target of experiment [2] is T1, purified recombinant human PI3K enzyme δ (Homo sapiens, UniProt O00329).
T1 construct: purchased Invitrogen, USA
As to the kind of experiment: Inhibition of PI3-Kinase enzymatic activity (HTRF enzyme assay), δ. It is filed as biochemical. Particulars: 1 μM compound; PI3K δ 50 ng/well; PIP2 10 μM; ATP 200 μM; read-out: Percentage inhibition of PI3K activity, δ. In short, it runs like this:
(§1)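 HTRF assay with compound at 1 μM (1.0% DMSO), recombinant human PI3Kδ (50 ng/well) or γ (100 ng/well) and PIP2 (10 μM), preincubated 15 min at room temperature. ATP (δ 200 μM, γ 50 μM) was then added for 30 min at room temperature. Percent inhibition was derived from the 665/615 nm signal ratio.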
(In general: TR-FRET usually uses a lanthanide donor and a delayed reading to cut background.)

For experiment [3], the target named is T2, purified recombinant human PI3K enzyme γ (Homo sapiens, UniProt P48736).
T2 construct: purchased Invitrogen, USA
As to the kind of experiment: Inhibition of PI3-Kinase enzymatic activity (HTRF enzyme assay), γ. It is filed as biochemical. Particulars: 1 μM compound; PI3K γ 100 ng/well; PIP2 10 μM; ATP 50 μM; read-out: Percentage inhibition of PI3K activity, γ. In short, it runs like this: as §1

The record followed here is patent US20190127381A1, “SUBSTITUTED FUSED PYRIMIDINONE COMPOUNDS” (TORRENT PHARMACEUTICALS LIMITED, priority 2016, published 2019).

Structures are written as SMILES.

T2 sequence (P48736 whole entry): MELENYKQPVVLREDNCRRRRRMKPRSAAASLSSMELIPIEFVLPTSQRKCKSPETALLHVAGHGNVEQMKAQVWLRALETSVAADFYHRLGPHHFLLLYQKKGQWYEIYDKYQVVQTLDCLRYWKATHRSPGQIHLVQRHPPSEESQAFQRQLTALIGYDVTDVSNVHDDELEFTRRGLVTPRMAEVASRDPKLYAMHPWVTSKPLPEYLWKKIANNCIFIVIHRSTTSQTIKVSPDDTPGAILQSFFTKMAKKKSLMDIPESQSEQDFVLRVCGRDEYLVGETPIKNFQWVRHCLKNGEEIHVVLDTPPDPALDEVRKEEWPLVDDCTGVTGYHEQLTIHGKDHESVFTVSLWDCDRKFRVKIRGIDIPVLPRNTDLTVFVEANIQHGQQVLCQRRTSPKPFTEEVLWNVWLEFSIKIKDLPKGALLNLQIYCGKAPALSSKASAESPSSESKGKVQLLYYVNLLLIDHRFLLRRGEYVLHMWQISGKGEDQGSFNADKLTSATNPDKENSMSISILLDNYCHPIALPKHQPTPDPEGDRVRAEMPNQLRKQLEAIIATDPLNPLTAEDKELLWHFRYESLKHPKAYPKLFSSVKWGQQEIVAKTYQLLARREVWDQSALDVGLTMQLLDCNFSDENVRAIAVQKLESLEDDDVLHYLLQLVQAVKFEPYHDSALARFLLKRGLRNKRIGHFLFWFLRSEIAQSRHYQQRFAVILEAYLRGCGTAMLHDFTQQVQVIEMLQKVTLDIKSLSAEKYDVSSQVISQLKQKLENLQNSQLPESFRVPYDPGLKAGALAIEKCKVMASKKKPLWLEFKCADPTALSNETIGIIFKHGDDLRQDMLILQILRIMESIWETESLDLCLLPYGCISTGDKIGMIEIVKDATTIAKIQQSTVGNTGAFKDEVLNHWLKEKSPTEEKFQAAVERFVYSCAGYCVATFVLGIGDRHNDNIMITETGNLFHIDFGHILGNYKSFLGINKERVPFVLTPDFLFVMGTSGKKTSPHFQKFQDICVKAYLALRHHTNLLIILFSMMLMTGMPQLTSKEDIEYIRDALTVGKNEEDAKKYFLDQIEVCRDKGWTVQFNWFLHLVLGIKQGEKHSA
T1 sequence (O00329 whole entry): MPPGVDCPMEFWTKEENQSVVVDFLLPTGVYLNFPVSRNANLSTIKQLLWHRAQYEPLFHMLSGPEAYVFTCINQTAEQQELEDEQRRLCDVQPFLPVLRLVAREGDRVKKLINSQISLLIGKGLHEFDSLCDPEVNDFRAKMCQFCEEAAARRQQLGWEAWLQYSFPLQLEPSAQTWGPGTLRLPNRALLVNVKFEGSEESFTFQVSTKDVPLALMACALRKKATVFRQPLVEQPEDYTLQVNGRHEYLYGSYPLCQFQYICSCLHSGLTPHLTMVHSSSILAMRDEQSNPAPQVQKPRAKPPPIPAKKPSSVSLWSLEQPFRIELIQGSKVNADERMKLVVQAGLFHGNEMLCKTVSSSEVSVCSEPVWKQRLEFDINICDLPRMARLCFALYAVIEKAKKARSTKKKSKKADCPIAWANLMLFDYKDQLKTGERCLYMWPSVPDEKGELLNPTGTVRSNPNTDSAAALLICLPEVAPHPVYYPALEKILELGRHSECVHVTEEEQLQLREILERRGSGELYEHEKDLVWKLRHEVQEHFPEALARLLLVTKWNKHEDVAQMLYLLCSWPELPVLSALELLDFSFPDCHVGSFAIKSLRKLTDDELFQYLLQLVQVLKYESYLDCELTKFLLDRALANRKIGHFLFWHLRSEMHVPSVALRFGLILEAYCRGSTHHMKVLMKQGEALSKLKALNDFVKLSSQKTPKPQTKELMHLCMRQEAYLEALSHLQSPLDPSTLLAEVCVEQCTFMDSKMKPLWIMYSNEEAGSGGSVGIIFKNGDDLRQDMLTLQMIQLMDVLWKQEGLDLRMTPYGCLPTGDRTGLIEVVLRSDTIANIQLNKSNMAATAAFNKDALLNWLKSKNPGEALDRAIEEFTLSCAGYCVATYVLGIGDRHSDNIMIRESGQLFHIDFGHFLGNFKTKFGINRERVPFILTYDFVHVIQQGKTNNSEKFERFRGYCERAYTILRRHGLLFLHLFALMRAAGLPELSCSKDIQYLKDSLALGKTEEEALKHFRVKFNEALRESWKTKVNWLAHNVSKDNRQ
T1 sequence (P27986 whole entry partner): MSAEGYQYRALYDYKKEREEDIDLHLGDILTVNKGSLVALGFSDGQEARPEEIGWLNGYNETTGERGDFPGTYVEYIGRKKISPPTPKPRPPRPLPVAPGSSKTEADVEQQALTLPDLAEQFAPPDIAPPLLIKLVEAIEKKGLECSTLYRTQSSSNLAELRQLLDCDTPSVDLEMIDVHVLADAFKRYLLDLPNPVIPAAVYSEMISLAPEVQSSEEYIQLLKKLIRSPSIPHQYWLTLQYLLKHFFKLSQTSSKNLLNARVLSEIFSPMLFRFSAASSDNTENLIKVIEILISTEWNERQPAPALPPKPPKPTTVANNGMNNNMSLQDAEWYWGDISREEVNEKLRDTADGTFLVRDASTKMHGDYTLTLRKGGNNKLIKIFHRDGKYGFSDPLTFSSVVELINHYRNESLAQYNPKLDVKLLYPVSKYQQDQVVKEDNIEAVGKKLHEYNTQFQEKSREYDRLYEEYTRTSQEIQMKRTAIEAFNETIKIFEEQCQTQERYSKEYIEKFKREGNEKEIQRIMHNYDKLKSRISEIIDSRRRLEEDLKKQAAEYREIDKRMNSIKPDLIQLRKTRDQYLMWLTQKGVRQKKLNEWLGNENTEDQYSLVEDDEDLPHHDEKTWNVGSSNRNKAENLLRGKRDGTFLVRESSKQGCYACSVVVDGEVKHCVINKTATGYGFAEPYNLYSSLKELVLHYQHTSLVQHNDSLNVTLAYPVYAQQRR

`Cc1cccc2nc(Cn3nc(-c4ccc(O)c5c4CC(C)(C)O5)c4c(N)ncnc43)n(-n3c(C)ccc3C)c(=O)c12` [Compound No. 39, 2-{[4-amino-3-(7-hydroxy-2,2-dimethyl-2,3-dihydro-1-benzofuran-4-yl)-1H-pyrazolo[3,4-d]pyrimidin-1-yl]methyl}-3-(2,5-dimethyl-1H-pyrrol-1-yl)-5-methylquinazolin-4(3H)-one]: the “% Inhibition of neutrophil against vehicle group” value in experiment [1] (1 mg/ml nebulized) amounted to 22%; in experiment [1] (3 mg/ml nebulized), 68%. Also, the “Neutrophil (*10^6 cells/animal) in BAL fluid” value in experiment [1] (1 mg/ml nebulized) is given as 6.5 ± 3.2 *10^6 cells/animal; in experiment [1] (3 mg/ml nebulized), 2.7 ± 1.4 *10^6 cells/animal. Moreover, the inhibition at 1 µM in experiment [2] and in experiment [3] was 80 to 100% each time.

The term inhibition denotes the relative decrease from the control value, in per cent.
